Laboratory results: ChEMBL document CHEMBL3769335, “Non-symmetrical furan-amidines as novel leads for the treatment of cancer and malaria” (Eur J Med Chem, 2016)
Activity calls are given as the source filed them. The rule behind the calls is not given here.

Experiments:
[1] = target: T1, Ribosyldihydronicotinamide dehydrogenase [quinone] (Homo sapiens, UniProt P16083); assay: Inhibition of human recombinant NQO2 using DCPIPas substrate and NRH as cofactor measured for 1 min by spectrophotometry in the absence of BSA
T1 sequence (P16083 whole entry): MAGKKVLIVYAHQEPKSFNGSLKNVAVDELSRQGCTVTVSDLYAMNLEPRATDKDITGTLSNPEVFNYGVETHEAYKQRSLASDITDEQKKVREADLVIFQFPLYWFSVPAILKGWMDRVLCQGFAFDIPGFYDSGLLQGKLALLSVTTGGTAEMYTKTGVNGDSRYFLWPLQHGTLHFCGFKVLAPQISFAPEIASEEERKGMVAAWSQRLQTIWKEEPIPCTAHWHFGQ

[2] = target: T1, Ribosyldihydronicotinamide dehydrogenase [quinone]; assay: Inhibition of human recombinant NQO2 using DCPIPas substrate and NRH as cofactor measured for 1 min by spectrophotometry in the prsence of BSA
MDA-MB-468 [3] = assay: Cytotoxicity against human MDA-MB-468 cells after 96 hrs by MTT assay; assay type: functional, cell-based; details: MDA-MB-468, 96 h
MDA-MB-231 [4] = assay: Cytotoxicity against human MDA-MB-231 cells after 96 hrs by MTT assay; assay type: functional, cell-based; details: MDA-MB-231, 96 h
MCF7 [5] = assay: Cytotoxicity against human MCF7 cells after 96 hrs by MTT assay; assay type: functional, cell-based; details: MCF7, 96 h
T47D [6] = assay: Cytotoxicity against human T47D cells after 96 hrs by MTT assay; assay type: functional, cell-based
Plasmodium falciparum = assay: Antimalarial activity against Plasmodium falciparum 3D7 infected in erythrocyte assessed as growth inhibition after 4 days by flow cytometry; assay type: functional, organism-based; details: 3D7, 96 h
[7] = Drug uptake in Plasmodium falciparum 3D7 nucleus; assay type: ADME
Calf thymus DNA = details: Bos taurus
Description: Binding affinity to calf thymus DNA assessed as change in melting temperature by UV-visible spectrophometry

[8] = target: T1, Ribosyldihydronicotinamide dehydrogenase [quinone]; assay: Inhibition of human recombinant NQO2 using DCPIP as substrate and NRH as cofactor in absence of BSA
[9] = target: NAD(P)H dehydrogenase [quinone] 1 (Homo sapiens) (UniProt P15559); assay: Inhibition of human recombinant NQO1 using NADH as substrate at 10 uM measured for 1 min by spectrophotometry in presence of BSA
MDA-MB-468 [10] = assay: Cytotoxicity against human MDA-MB-468 cells at 10 uM after 96 hrs by MTT assay; assay type: functional, cell-based
MDA-MB-231 [11] = assay: Cytotoxicity against human MDA-MB-231 cells at 10 uM after 96 hrs by MTT assay; assay type: functional, cell-based
MCF7 [12] = assay: Cytotoxicity against human MCF7 cells at 10 uM after 96 hrs by MTT assay; assay type: functional, cell-based
T47D [13] = assay: Cytotoxicity against human T47D cells at 10 uM after 96 hrs by MTT assay; assay type: functional, cell-based
[14] = target: NAD(P)H dehydrogenase [quinone] 1 (Homo sapiens) (UniProt P15559); assay: Inhibition of human recombinant NQO1 using NADH as substrate at 10 uM measured for 1 min by spectrophotometry in absence of BSA

Chain of NAD(P)H dehydrogenase [quinone] 1 (Homo sapiens) (P15559 whole entry): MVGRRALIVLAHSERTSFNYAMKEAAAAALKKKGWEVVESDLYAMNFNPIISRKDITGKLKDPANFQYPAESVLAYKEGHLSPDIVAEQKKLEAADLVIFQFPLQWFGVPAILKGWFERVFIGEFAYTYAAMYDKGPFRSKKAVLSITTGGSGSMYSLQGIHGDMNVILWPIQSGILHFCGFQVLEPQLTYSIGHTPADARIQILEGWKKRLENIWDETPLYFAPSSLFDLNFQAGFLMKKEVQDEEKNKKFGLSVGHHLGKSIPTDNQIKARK

CC(=O)O.Cc1ccc(-c2ccc(-c3ccc(C(=N)N)cc3)o2)cc1
IC50 [1]: 72 nM | IC50 [2]: 110 nM | IC50 (MDA-MB-468 [3]): 3700 nM | IC50 (MDA-MB-231 [4]): 3400 nM | IC50 (MCF7 [5]): 4800 nM | IC50 (T47D [6]): 3100 nM | IC50 (Plasmodium falciparum): 57.5 nM | Drug uptake [7]: Not Active | ΔTm (Calf thymus DNA): 2.8 °C

N=C(N)c1ccc(-c2ccc(-c3ccc(Br)cc3)o2)cc1
IC50 [1]: 27 nM | IC50 [2]: 185 nM | IC50 (MDA-MB-468 [3]): 2500 nM | IC50 (MDA-MB-231 [4]): 2700 nM | IC50 (MCF7 [5]): 2600 nM | IC50 (T47D [6]): 2400 nM | ΔTm (Calf thymus DNA): 4.4 °C

N=C(N)c1ccc(-c2ccc(-c3ccccc3)o2)cc1
IC50 [1]: 68 nM | IC50 [2]: 139 nM | IC50 (MDA-MB-468 [3]): 2700 nM | IC50 (MDA-MB-231 [4]): 2000 nM | IC50 (MCF7 [5]): 2400 nM | IC50 (T47D [6]): 2800 nM | IC50 [8]: 140 nM | ΔTm (Calf thymus DNA): 1.9 °C

N=C(N)c1ccc(-c2ccc(-c3cccc([N+](=O)[O-])c3)o2)cc1
IC50 [1]: 14.5 nM | IC50 [2]: 28 nM | IC50 (MDA-MB-468 [3]): 3300 nM | IC50 (MDA-MB-231 [4]): 2900 nM | IC50 (MCF7 [5]): 3000 nM | IC50 (T47D [6]): 3300 nM

CC(=O)O.COc1ccc(-c2ccc(-c3ccc(C(=N)N)cc3)o2)cc1
IC50 [1]: 107 nM | IC50 [2]: 141 nM | IC50 (MDA-MB-468 [3]): 2200 nM | IC50 (MDA-MB-231 [4]): 2500 nM | IC50 (MCF7 [5]): 2800 nM | IC50 (T47D [6]): 3000 nM | IC50 (Plasmodium falciparum): 139 nM | Drug uptake [7]: Not Active | ΔTm (Calf thymus DNA): 2 °C

COc1cccc2c1C(=O)c1c(O)c3c(c(O)c1C2=O)C[C@@](O)(C(=O)CO)C[C@@H]3O[C@H]1C[C@H](N)[C@H](O)[C@H](C)O1
ΔTm (Calf thymus DNA): 20.5 °C

N=C(N)c1ccc(-c2ccc(-c3ccccc3)[nH]2)cc1
IC50 [1]: 332 nM | IC50 [2]: 832 nM | IC50 (MDA-MB-468 [3]): 3600 nM | IC50 (MDA-MB-231 [4]): 3800 nM | IC50 (MCF7 [5]): 3200 nM | IC50 (T47D [6]): 3400 nM

Cc1c(-c2ccc(C(=N)N)cc2)oc(-c2ccc(C(=N)N)cc2)c1C
IC50 [8]: 50 nM

N=C(N)c1ccc(-c2ccc(-c3cccc(F)c3)o2)cc1
IC50 [1]: 98 nM | IC50 [2]: 111 nM | IC50 (MDA-MB-468 [3]): 2400 nM | IC50 (MDA-MB-231 [4]): 2000 nM | IC50 (MCF7 [5]): 2600 nM | IC50 (T47D [6]): 2800 nM | ΔTm (Calf thymus DNA): 3.2 °C

CCc1ccc(-c2ccc(-c3ccc(C(=N)N)cc3)o2)cc1
IC50 [1]: 202 nM | IC50 [2]: 312 nM | IC50 (MDA-MB-468 [3]): 3300 nM | IC50 (MDA-MB-231 [4]): 3400 nM | IC50 (MCF7 [5]): 3200 nM | IC50 (T47D [6]): 3000 nM

Cn1c(-c2ccccc2)ccc1-c1ccc(C(=N)N)cc1
IC50 [1]: 410 nM | IC50 [2]: 943 nM | IC50 (MDA-MB-468 [3]): 3800 nM | IC50 (MDA-MB-231 [4]): 2600 nM | IC50 (MCF7 [5]): 2700 nM | IC50 (T47D [6]): 2100 nM | ΔTm (Calf thymus DNA): 0.9 °C

N=C(N)c1ccc(-c2ccc(-c3ccc([N+](=O)[O-])cc3)o2)cc1
IC50 [1]: 15.2 nM | IC50 [2]: 24 nM | IC50 (MDA-MB-468 [3]): 3400 nM | IC50 (MDA-MB-231 [4]): 3100 nM | IC50 (MCF7 [5]): 3200 nM | IC50 (T47D [6]): 3800 nM

N=C(N)c1cccc(-c2ccc(-c3ccccc3)o2)c1
inhibition [9]: inactive | Activity (MDA-MB-468 [10]): inactive | Activity (MDA-MB-231 [11]): inactive | Activity (MCF7 [12]): inactive | Activity (T47D [13]): inactive | inhibition [14]: inactive

CC(=O)O.N=C(N)c1ccc(-c2ccc(-c3ccc(F)cc3)o2)cc1
IC50 [1]: 505 nM | IC50 [2]: 836 nM | IC50 (MDA-MB-468 [3]): 3800 nM | IC50 (MDA-MB-231 [4]): 3200 nM | IC50 (MCF7 [5]): 3700 nM | IC50 (T47D [6]): 3600 nM | IC50 (Plasmodium falciparum): 9.6 nM | Drug uptake [7]: Not Active | ΔTm (Calf thymus DNA): 3.2 °C

CC(=O)O.CC(=O)O.N=C(N)c1ccc(-c2ccc(-c3ccc(C(=N)N)cc3)o2)cc1
IC50 [1]: 35 nM | IC50 [2]: 72 nM | IC50 (MDA-MB-468 [3]): 14000 nM | IC50 (MDA-MB-231 [4]): 12500 nM | IC50 (MCF7 [5]): 13600 nM | IC50 (T47D [6]): 12800 nM | IC50 [8]: 630 nM | Drug uptake [7]: Active | ΔTm (Calf thymus DNA): 20 °C

CC(C)(C)c1ccc(-c2ccc(-c3ccc(C(=N)N)cc3)o2)cc1
IC50 [1]: 510 nM | IC50 [2]: 712 nM | IC50 (MDA-MB-468 [3]): 3800 nM | IC50 (MDA-MB-231 [4]): 3200 nM | IC50 (MCF7 [5]): 3700 nM | IC50 (T47D [6]): 3600 nM

Oc1ccc(/C=C/c2cc(O)cc(O)c2)cc1 [RESVERATROL]
IC50 (MDA-MB-468 [3]): 58000 nM | IC50 (MDA-MB-231 [4]): 57000 nM | IC50 (MCF7 [5]): 62000 nM | IC50 (T47D [6]): 59000 nM
